This is an account of results in patent US9266922B2, “Antigen peptide and uses thereof” (priority 2011, dated 2016).

The target in experiment [1] is T1, HLA-A*0201 (Homo sapiens, UniProt P04439, D140Y/D185E/D98H/E176V/E277Q/G131W/G231S/I119V/I121R/I166T/I218V/L300P/L318F/N151K/N90K/P208A/P217A/Q86G/Q94H/R138H/R169H/T345S). In words: iTOPIA EDS MHC peptide binding assay. Conditions: HLA-A*0201 monomer, relative to positive control peptide, 21° C. for 18 h. From the text:
MHC peptide binding assay using iTOPIA EDS
Microtiter 96 well plates containing HLA class I MHC monomer loaded with the human β2-microglobulin and a “placeholder” peptide were used to evaluate peptide binding, affinity, and off-rate.
The 502 nectin4 nonapeptides were first evaluated for their ability to bind to each MHC molecule in the peptide binding assay. In this assay, the placeholder peptides were stripped from the MHC class I monomer complexes coated on plastic, which leaves the MHC class I heavy chain available as a binding partner for candidate peptides in the presence of human β2-microglobulin.
Peptide binding was performed at 21° C. for 18 h. Revelation was done using an anti HLA-ABC-FITC mAb that binds to refolded MHC complex conformation. The relative fluorescent intensity was read using a fluorimeter (Molecular Devices, SpectraMax Gemini, Sunnyvale, Calif., USA).
Peptides with a binding>30% of the positive control peptide were selected as “binder” and subsequently analyzed for affinity (ED50) and off-rate (T1/2).

Experiment [2] addresses T1, HLA-A*0201. In words: iTOPIA EDS and […] analyses (FIG. 5B). Conditions: iTOPIA EDS and SYFPEITHI
It counts as binding. As for the experimental part: (§1) A library of 502 nonapeptides which span the entire 510 amino acid sequence of human nectin4, was synthesized (JPT Peptide Technologies GmbH, Berlin Germany). A series of 9 peptides described in the literature was selected and used as reference (Table 1). Peptides (purity >80%) were dissolved in DMSO at a concentration of 10 mM and stored at −20° C. Specific control peptides for each allele were supplied by the manufacturer of the iTOPIA Epitope Discovery System (EDS) (Beckman Coulter Inc., San Diego, Calif., USA). The 502 peptides were tested for binding to eight alleles (HLA-A*0101; HLA-A*0201; HLA-A*0301; HLA-A*1101; HLA-A*2402; […]; HLA-B*0801; HLA-B*1501) with the iTOPIA EDS.

In another experiment the target is HLA-A*2402 (Homo sapiens, UniProt P04439, D101N/D140Y/D185E/E176V/E190D/F33S/G103R/G107R/I119L/I121M/I306V/K335N/L105A/L180Q/L300P/N151K/N90K/Q86E/Q94H/R106L/R138H/R89G/T104I/T345S/V100E/W191G/Y123F). In words: iTOPIA EDS and […] analyses (FIG. 5B). The format is binding. Conditions: iTOPIA EDS and SYFPEITHI
As for the experimental part: as §1

Another experiment concerns the target HLA-B*1501 (Homo sapiens, UniProt P01889, A329T/A93T/A95T/C349S/D201E/D98Y/E187L/E204Q/E69M/E70A/K202T/N87E/Q94N/R155S/R180W/S121R/S35A/S48A/V306I/V36M/Y140S/Y91S). In words: iTOPIA EDS and […] analyses (FIG. 5B). The format is binding. Conditions: iTOPIA EDS and SYFPEITHI
As for the experimental part: as §1

In experiment [3] the target is T1, HLA-A*0201. In words: iScore calculation (iTOPIA system software). Conditions: multiparametric score of binding, off-rate and affinity.
Experiment [4] deals with T2, HLA A*0201 on CEM.T2 cell line (Homo sapiens, UniProt P04439, D140Y/D185E/D98H/E176V/E277Q/G131W/G231S/I119V/I121R/I166T/I218V/L300P/L318F/N151K/N90K/P208A/P217A/Q86G/Q94H/R138H/R169H/T345S).
T2 construct: This cell line expresses HLA A*0201 but is deficient for TAP transporter; endogenous in cells; host or cells: CEM.T2 (T2) cell line
In words: Cellular binding assay, HLA stabilization on CEM.T2 cells. It counts as cell-based. As for the experimental part:
The CEM.T2 cell line (T2) is defective in the processing of proteins for presentation by MHC class 1 molecules. This cell line expresses HLA A*0201 but is deficient for TAP transporter. T2 is classically used to assess the Peptide/HLA-A*0201 Complex Stability[H. W. Nijman et al., 1993]
For HLA-A2*0201 stabilization, T2 cells (2×10^5/well) were incubated in serum-free RPMI (Gibco®-France) with 100 μM of selected peptide, at 37° C. for 4 h. Cells were washed two times with PBS supplemented with 1% BSA and stained with fluorescein isothiocyanate-conjugated anti HLA-A2 (Clone BB7.2) (BD Bioscience Pharmingen-France-) at 4° C. for 45 min. After 3 washes, cells were fixed in PBS supplemented with 2% paraformaldehyde and analyzed by FACS (FACScan, BD Bioscience). The percentage of peptide binding was calculated as follows: % Binding={(MFI peptide sample−MFI Neg control)/(MFI Pos control−MFI Neg control)}×100
Negative control was done without peptide.

Experiment [5] has as its target T1, HLA-A*0201. In words: biochemical. It counts as binding.
The subject of experiment [6] is MDA-MB-231 breast carcinoma cell line. In words: CTL cytotoxicity, 4 h 51Cr-release assay. Conditions: FIG. 4D. It counts as cell-based, human.
Experiment [7] has as its target T1, HLA-A*0201. In words: F-Score ranking (iTOPIA and CEM T2). Conditions: overall ranking by iTOPIA and CEM T2 assays, nectin4 and reference peptides together.
Experiment [8] concerns the target T2, HLA A*0201 on CEM.T2 cell line. In words: Cellular dissociation assay on CEM.T2 cells. The format is cell-based. Conditions: after Brefeldin A 1 h and 3 h in serum-free RPMI at 37° C. (4 h). As for the experimental part:
Cellular Dissociation Assay
After HLA-A2*0201 stabilization with peptides at 37° C. for 4 h, T2 cells were incubated for 1 h, in serum-free RPMI containing Brefeldin A (10 μg/ml), an inhibitor of the transport of secretory and lysosomal proteins [G. J. Strous et al., 1993]. After 3 washes, T2 cells were incubated for 3 h in serum-free RPMI at 37° C. Binding was then measured by FACS and after 4 h incubation. Percentage of Residual Binding (% RB) was calculated as follows: […]

Read-outs that look alike come from different tables or passages of the source. Residues, ends and D or L forms follow the SMILES beside them.

For the molecule `CC(C)C[C@H](NC(=O)[C@H](CO)NC(=O)[C@@H]1CCCN1C(=O)[C@H](CC(C)C)NC(=O)[C@@H]1CCCN1C(=O)[C@@H]1CCCN1C(=O)[C@@H](NC(=O)[C@H](CC(C)C)NC(=O)[C@@H](N)C(C)C)C(C)C)C(=O)O` [Peptide 145] (H-VLVPPLPSL-OH; N-terminus and C-terminus assumed), the “% Binding” value at HLA-A*0201 [1] worked out at 67%. Further, on HLA-A*0201 [2], the “binder class for HLA-A*0201” value was “strong binder”. Besides, on HLA-A*2402, the “binder class for HLA-A*2402” value is on record as “strong binder”. The “binder class for HLA-B*1501” value on HLA-B*1501 is listed as “strong binder”. The iScore on HLA-A*0201 [3] was 0.783. Besides, the “HLA-A*0201 class I level on T2 cells” value in [4] (flow cytometry, FIG. 3A and 3B) is “increase the HLA-A*0201 class I level on T2 cells”. Moreover, the EC50 was 500 nM on HLA-A*0201 [5] (Affinity (ED50)) and about 100 nM on HLA-A*0201 [5] (estimated dose to reach 50% maximal binding (ED50)). Also, the “lysis by peptide-specific CTL of MDA-MB-231 cell line expressing nectin4” value in experiment [6] (CTL isolated with HLA-A2/peptide tetramer, target not peptide loaded) was “able to kill the MDA-MB-231 cell line expressing nectin4”. Besides, in experiment [6] (nectin4 negative HLA-A*0201 target), the “lysis by peptide-specific CTL of wild-type MDA-MB-231 cells” value is “not the wild-type MDA-MB-231 cells”.
For `CC(C)C[C@H](NC(=O)[C@@H](N)CC(C)C)C(=O)N[C@@H](C)C(=O)N[C@@H](CO)C(=O)N[C@@H](Cc1ccccc1)C(=O)N[C@H](C(=O)NCC(=O)N[C@@H](CCCNC(=N)N)C(=O)N[C@@H](CS)C(=O)O)[C@@H](C)O` [Peptide 21] (H-LLASFTGRC-OH; N-terminus and C-terminus assumed), the “RANK F-Score” value at HLA-A*0201 [7] was found to be 11. In addition, the “% Binding” value at HLA-A*0201 [1] amounted to 91%. Moreover, in experiment [8], the “CEM.T2 % Residual Binding” value is listed as 86%. Further, the iScore on HLA-A*0201 [3] is 0.727. Moreover, the “CEM.T2 % Binding” value in experiment [4] (100 μM peptide, 37° C. for 4 h, FACS anti HLA-A2, relative to HBV positive control peptide) is 44%. Moreover, the EC50 on HLA-A*0201 [5] (FIG. 2A, peptide concentration 10^−4 to 10^−9 M, read-out: estimated dose to reach 50% maximal binding (ED50)) was about 100 nM; on HLA-A*0201 [5] (peptide concentration giving 50% of optimal binding, 10^−4 to 10^−9 M, 21° C. for 18 h, read-out: Affinity (ED50)) it was 600 nM.
